Reference: PubChem BioAssay (NCI)
Where “and” joins values, the source holds several entries; their conditions need not be identical. Equal entries are not always repeated.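 48-hour exposure; five concentrations; linearly interpolated endpoints. GI50: concentration for 50% inhibition of growth. The concentration for full growth arrest is given as TGI.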

Columns and labels:
Assay in all cases: NCI tumour cell line growth inhibition, 48 h
ACHN renal = test system: ACHN renal
BT-549 breast = test system: BT-549 breast
MOLT-4 leukemia = test system: MOLT-4 leukemia
RPMI-8226 leukemia = test system: RPMI-8226 leukemia
SK-MEL-28 melanoma = test system: SK-MEL-28 melanoma
SNB-75 CNS = test system: SNB-75 CNS
SW-620 colon = test system: SW-620 colon
T-47D breast = test system: T-47D breast

Compound | TGI (ACHN renal) | TGI (BT-549 breast) | TGI (MOLT-4 leukemia) | TGI (RPMI-8226 leukemia) | TGI (SK-MEL-28 melanoma) | TGI (SNB-75 CNS) | TGI (SW-620 colon) | TGI (T-47D breast) | GI50 (ACHN renal) | GI50 (BT-549 breast) | GI50 (MOLT-4 leukemia) | GI50 (RPMI-8226 leukemia) | GI50 (SK-MEL-28 melanoma) | GI50 (SNB-75 CNS) | GI50 (SW-620 colon) | GI50 (T-47D breast)
COC(=O)C1C2CCCN2OC1(C)CO (stereo not given) | > 100 µM | > 100 µM | > 100 µM | > 100 µM | > 100 µM | > 100 µM | > 100 µM | > 100 µM | – | – | – | – | – | – | – | –
C[C@@]1(N2C(=O)OC[C@@H]2c2ccccc2)C(=O)N([C@H](CC(=O)N2CCC(N3CCCCC3)CC2)C(=O)NCc2cccc(C(F)(F)F)c2)[C@@H]1/C=C/c1ccccc1 | 4.61 µM | 9.33 µM | 6.42 µM | 6.38 µM | 3.51 µM | 2.95 µM | 4.09 µM | 3.53 µM | 2.03 µM | 3.29 µM | 2.26 µM | 2.59 µM | 1.8 µM | 1.28 µM | 1.98 µM | 1.77 µM
Oc1cc2ccccc2cc1-c1n[nH]c(=S)n1-c1ccc(Cl)cc1 | > 100 µM | > 100 µM | > 100 µM | 43.5 µM | > 100 µM | > 100 µM | > 100 µM | > 100 µM | 25.8 µM | 16.2 µM | 22.7 µM | 12.1 µM | 36.4 µM | 28.7 µM | 23 µM | 31.6 µM
O=C(O)/C=C\C(=O)Nc1ccc2c(c1)C(=O)c1cc(F)ccc1-2 | > 100 µM | > 100 µM | > 100 µM | > 100 µM | > 100 µM | > 100 µM | > 100 µM | > 100 µM | – | – | – | – | – | – | – | –
CC(=O)OCC1OC(n2c(-c3ccccc3)c(C)c(C)c(C#N)c2=S)C(OC(C)=O)C(OC(C)=O)C1OC(C)=O (stereo not given) | > 100 µM | – | > 100 µM | – | > 100 µM | > 100 µM | > 100 µM | > 100 µM | 26.8 µM and > 100 µM | – | – | – | – | – | 22.9 µM and > 100 µM | –
CC([O-])C(=O)[O-].NCC1CCC1CN.[Pt+4] (stereo not given) | > 10 µM | > 10 µM | > 10 µM | > 10 µM | > 10 µM | > 10 µM | > 10 µM | > 10 µM | 6.19 µM | > 10 µM | 8.71 µM | > 10 µM | > 10 µM | > 10 µM | > 10 µM | > 10 µM
O=C1C(Cl)=C(Nc2cccc(O)c2)C(=O)N1c1cccc(Cl)c1Cl | > 100 µM | 61.2 µM | 11.8 µM | 16.2 µM | > 100 µM | – | 34.5 µM | 86.3 µM | 19.1 µM | 24.5 µM | 2.31 µM | 1.56 µM | 24.4 µM | – | 15.2 µM | 16.8 µM
O=C(Nc1ccc(Br)cc1F)c1cc(Br)ccc1O | 9.18 µM | 3.25 µM | 4.49 µM | 2.02 µM | 2.13 µM | 5.95 µM | 7.42 µM | 6.87 µM | 0.848 µM | 0.403 µM | 1.45 µM | 0.322 µM | 0.4 µM | 0.768 µM | 1.14 µM | 0.457 µM
COc1ccc(/C=C/C(=O)c2ccc(Nc3ccnc4cc(Cl)ccc34)cc2)cc1 | > 100 µM | > 100 µM | > 48.4 µM | > 55.6 µM | > 100 µM | > 100 µM | > 100 µM | > 100 µM | > 100 µM | > 100 µM | 4.35 µM | 4.94 µM | > 100 µM | > 100 µM | > 100 µM | > 100 µM
CN1CCCCC1CCN1c2ccccc2Sc2ccc(S(C)=O)cc21 (stereo not given) | > 100 µM | > 100 µM | > 100 µM | > 100 µM | > 100 µM | > 100 µM | > 100 µM | > 100 µM | – | – | – | – | – | – | – | –
C[C@]12CC[C@H]3[C@@H](C[C@@H]4N=C(c5ccc(O)cc5)S[C@@]45C[C@H](O)CC[C@]35C)[C@@H]1CC[C@@H]2O | > 100 µM | 19.4 µM | > 100 µM | 2.5 µM | 66 µM | 25.7 µM | > 100 µM | > 100 µM | 7.55 µM | 1.14 µM | 1.93 µM | 0.378 µM | 3.05 µM | 1.84 µM | 8.4 µM | 10.3 µM
CC/C=C\C/C=C\C[C@H]1C/C=C2/C(=O)C=C[C@H]2C/C=C\CCC(=O)O1 | 5.2 µM | 10.1 µM | 10.5 µM | 7.45 µM | 8.01 µM | > 14.3 µM | 5.52 µM | > 14.3 µM | 2.6 µM | 3.68 µM | 3.48 µM | 1.29 µM | 3.12 µM | 10.1 µM | 2.11 µM | 4.62 µM
NC[C@@](O)(c1ccc(Cl)cc1)c1ccc(-c2cn[nH]c2)cc1 | 4.93 µM | 3.91 µM and 7.63 µM | > 100 µM | 4.95 µM | > 10 µM | 2.41 µM and 3.6 µM | – | 2.87 µM and 2.83 µM | 1.64 µM | 0.892 µM and 1.13 µM | 2.14 µM and 1.98 µM | 2.23 µM | 3.97 µM | 0.11 µM and 0.245 µM | 2.13 µM and 1.56 µM | 1.42 µM and 1.23 µM
COc1ccc(-c2coc3cc(OC)cc(O)c3c2=O)cc1 | > 100 µM | – | – | > 100 µM | > 100 µM | > 100 µM | > 100 µM | > 100 µM | – | – | – | – | – | – | – | –
CCN(CC)CC(O)C1CCC(c2ccccc2)CC1 (stereo not given) | 57.5 µM | – | > 100 µM | 39 µM | 48.9 µM | 64.4 µM | 80.9 µM | > 100 µM | – | – | – | – | – | – | – | –
Cn1c(=S)sc2nc3ccccc3n2c1=S | 24 µM | – | 38.7 µM | 88.1 µM | 25.1 µM | 48.8 µM | 29.2 µM | 39.6 µM | – | – | – | – | – | – | – | –
O=C(CN1CCN(c2ccc(Cl)cc2)CC1)N1CCN(c2nnc(-c3ccccc3)c(-c3ccccc3)n2)CC1 | > 100 µM | > 100 µM | > 100 µM | > 100 µM | – | > 100 µM | > 100 µM | > 100 µM | 5.07 µM | 3.14 µM | 2.41 µM | 2.77 µM | – | 7.56 µM | 38.9 µM | 2 µM
O=C1c2ccccc2C(=O)c2c1ccc1c2OCO1 | – | > 100 µM | > 100 µM | > 100 µM | > 100 µM | > 100 µM | > 100 µM | > 100 µM | – | – | – | – | – | – | – | –
CC1=CC2C(C(C)C)CC1C1C(=O)OC(=O)C21 (stereo not given) | > 100 µM | > 100 µM | – | – | > 100 µM | > 100 µM | > 100 µM | > 100 µM | – | – | – | – | – | – | – | –
